{"source": "patent US20260263521A1", "about": "“ANTI-CD200R1 ANTIBODY AND USE THEREOF” (AIMED BIO INC., priority 2023, published 2026)", "system": "Th1/Th2 cytokines in nasal polyp patient specimens", "test": "Ex vivo cytokine inhibition in nasal polyp patient specimens (CBA)", "format": "cell-based, human", "settings": "antibody drugs 100 nM; three DUPIXENT-resistant samples of 10; Th2 cytokines IL-5, IL-4", "protocol": "The specimens were finely chopped and minced, and then additionally processed twice using the m_lung_02 protocol on a gentleMACS (Miltenyi Biotec) to obtain tissue fragments. After centrifugation at 1500 rpm for 3 minutes to ensure that all tissues formed a pellet, RPMI media+10% FBS was aliquoted in the pellet at a 1:3 ratio. The pellet was thoroughly mixed with the medium and dispensed into a 96-well u-bottom plate, 100 μl per well, in triplicate for each drug. To establish the screening assay, results were obtained first using dexamethasone (a steroid-based positive control drug), followed by treatment with the anti-CD200R1 antibody (P001009v1) and other drugs used for the corresponding disease. All antibody-based drugs were treated at 100 nM, while steroid drugs such as dexamethasone were treated at 20 μM.\nAfter drug treatment, the cells were incubated at 37° C. for 1 hour. To increase overall cytokine levels, 4 μl of a 10-fold diluted cell stimulation cocktail 500× (Invitrogen #00-4970-03) was added on each well and mixed. After reaction for 24 hours at 37° C., the supernatant was collected by centrifugation. Using the human Th1/Th2 cytokine cytometric bead array (CBA) kit (BD, #550749), cytokine levels in the supernatant were measured and the degree of drug responsiveness of each sample was determined."}
{"substance": "DUPIXENT®: drug used as a conventional therapeutic agent for atopic dermatitis and allergic diseases [reference compound]", "values": [{"measurement": "cytokine suppression in nasal polyp patient samples", "result": "no suppression"}]}
